Patent US8507431B2, “Methods for accelerating wound healing by administration of a preadipocyte modulator or an adipocyte modulator” (HealOr Ltd., priority 2003, dated 2013)
“Also recorded” adds a separate entry of the source.

Legend:
[1] = tested on: Full thickness wounds on the back of C57BL mice; assay: Wound healing assay, full thickness incision wounds in mice; assay type: in vivo; settings: for wound area compared with the buffer control (morphological analysis): topical daily for six days, insulin 10 nM, troglitazone 100 μM + insulin 10 nM; for wound area compared with the buffer control (morphological analysis) / epidermal migration vs PBS control (K14 staining) / wound contraction vs PBS control / dermal contraction (both dermal wound sides in a single field, H&E): adipsin 1 μM, GW9662 2 μM; for wound area compared with the buffer control (morphological analysis) / wound contraction vs PBS control: troglitazone 100 μM; for epidermal migration vs PBS control (K14 staining) / wound contraction vs PBS control / dermal contraction (both dermal wound sides in a single field, H&E): topical daily for 6 days; for dermal contraction (both dermal wound sides in a single field, H&E): control negative
Description: […] […] Wound biopsies were sampled, processed and analyzed morphologically and/or histochemically and/or immunohistochemically for various wound healing parameters, i.e., wound contraction, adipocytes migration and differentiation, epidermal migration, and epidermal closure.
The wound area was measured and compared to untreated control wounds; and wound contraction was calculated as the percent reduction of the wound area.
Wound biopsies were fixed in 4% paraformaldehyde then dehydrated in increasing concentrations of ethanol (50-100%). The dehydrated preparations were immersed first in xylene, then paraffin and xylene 1:1 solution, then in pure melted paraffin (60° C.). The paraffin blocks were then sectioned by a microtome and the sections were mounted on Super Frost^+™ slides.
Paraffin embedded wound-section slides were incubated at 60° C. for 60 minutes and were de-parafinated by washing the slides twice with toluene (100%) for 10 minutes, then rehydrated in decreasing concentration of ethanol (100-50%) for 5 minutes each. The slides were stained with hematoxylin (ready to use solution) for 10 minutes, rinsed with water, stained with eosin (0.5% in DDW) for 5 minutes, and then washed with 70% ethanol by 2 quick immersions. Thereafter, the slides were dehydrated by washing once with 95% ethanol for 2 minutes, twice with 100% ethanol for 5 minutes, and twice with xylene (100%) for 10 minutes, then mounted with entellan (MERCK Darmstadt Germany).
Paraffin embedded wound-section slides were de-parafinated as described for H&E staining above and incubated in blocking solution (5% BSA and 0.5% Tween 20™ in PBS) for 1 hour. The slides were then incubated with either anti-keratin 1 (1:500) or anti-keratin 14 (1:1000) antibody in blocking solution (5% BSA and 0.5% Tween 20™ in PBS) at 4° C. overnight. Thereafter, the slides were washed five times with washing buffer (5% Tween 20™ in PBS for K14 and 0.5% Tween 20™ in PBS for K1) followed by incubation with biotinilated goat anti-rabbit antibody (ZYMED Laboratories Inc.) suspended (1:200) in blocking solution (5% BSA and 0.5% Tween 20™ in PBS) for 1 hour at room temperature. The slides were then washed three times with washing buffer (5% Tween 20™ in PBS) followed by incubation with an enzyme streptavidin conjugate in blocking solution (1:300) for 1 hour at room temperature. Thereafter, the slides were washed twice with washing buffer (5% Tween 20™ in PBS) for 5 minutes, once with PBS for 5 minutes and once with TRIS buffer (0.05 M in PBS) for 5 minutes, followed by incubation in DAB reagent for color development. The reaction was terminated by immersing the slides in double distilled water followed by counterstaining with eosin (ICN, 0.5% in DDW). The slides were then washed with 70% ethanol by 2 quick immersions; dehydrated by washing once again with 95% ethanol for 2 minutes, twice with 100% ethanol for 5 minutes, and twice with xylene (100%) for 10 minutes; and mounted with entellan (MERCK Darmstadt Germany).
The effect of inhibiting or enhancing the activity of PPARγ using PPARγ antogonist and agonist, respectively, on wound healing was also evaluated in vivo. […]
The effect of adipsin (complementing Factor D, which is secreted from adipocytes) on wound healing was evaluated in vivo. […] The mice were sacrificed 6 days after wounding and the wounds were then analyzed. […] In addition, adipsin increased epidermal closure from about 15% to about 30%, and increased keratinocytes migration from about 30% to about 65%, as compared with the buffer control (FIG. 6).
Full thickness 20 mm incision wounds were performed on 8-10 week old C57BL mice, 6 mice per group. The wounds were treated daily for 7 days with PBS (control), adiponectin (1 μg/ml) or visfatin (0.01 μg/ml). Skin biopsies were paraffin embedded and slide sections representing the widest area of the wound were prepared. Sections were then subjected to histochemical staining such as H&E and Masson Trichrome (collagen). […]

primary keratinocytes = assay: Keratinocytes migration (wound scratch) assay in vitro; assay type: cell-based, murine; settings: for keratinocyte migration in scratch assay vs control and insulin: treated daily, 24 and 48 hrs
Description: Primary keratinocytes were isolated from newborn skin as described in reference 18. Keratinocytes were cultured in Eagle's Minimal Essential Medium (EMEM) containing 8% Chelex (Chelex-100, BioRad) treated fetal bovine serum. To maintain a proliferative basal cell phenotype, the final Ca^2+ concentration was adjusted to 0.05 mM. Experiments were performed five to seven days after plating.
Primary mouse keratinocytes were untreated or treated with, PPARγ antagonist GW9662 (μM) or PPARγ agonist troglitazone (μM). Wound Scratch Assay was performed 24 hours following treatment, and representative fields were photographed immediately after the wounding (Day 0) and 48 hours later (Day 2). The average of wound closure represented as percentage in comparison to the initial width of the wound scratch (% of wound closure).
The effect of inhibiting or enhancing the activity of peroxisome proliferators-activated receptor gamma (PPARγ) on keratinocytes migration was evaluated utilizing the in vitro migration assay. Thus, primary keratinocytes were isolated and plated on 5 ml non-coated dishes until confluence in low Ca^2+ medium, and an artificial crossover scratch was formed in each dish with a 200 μm tip. Cells were either non-treated (control) or treated daily with PPARγ modulators.
In order to test the effect of different adipokines on keratinocyte migration to close the wound gap, an in vitro scratch assay was used. Thus, primary keratinocytes were isolated and plated on 5 ml non-coated dishes until confluence in low Ca^2+ medium, and an artificial crossover scratch was formed in each dish with a 200 μm tip. Cells were either non-treated (control) or treated daily with insulin (0.1 unit/ml), hIL-4 (2 ng/ml), hIL-6 (0.2 ng/ml), leptin (4 μg/ml) or apelin (0.02 μg/ml or 0.2 μg/ml).
(§1) Primary keratinocytes/fibroblasts were isolated and plated on 5 ml non-coated dishes until confluence in low Ca^2+ medium, and an artificial cross-over scratch was formed in each dish with a 200 μm tip. Then, cells were either non-treated or treated with visfatin (0.1 μg/ml or 0.0.1 μg/ml) or insulin (0.1 unit/ml) for up to 48 hrs.

primary skin fibroblasts = assay: Fibroblasts scratch migration assay in vitro; assay type: cell-based; settings: 24 hrs; hIL-8 5 ng/ml, hIL-1β 0.2 ng/ml, hIL-4 2 ng/ml, apelin 0.2 μg/ml, adiponectin 1 μg/ml
Description: Primary skin fibroblasts were isolated and plated on 5 ml non-coated dishes until confluence in low Ca^2+ medium, and an artificial crossover scratch was formed in each dish with a 200 μm tip. Cells were either non-treated (control) or treated with insulin (0.1 unit/ml), hIL-8 (5 ng/ml), hIL-1β (0.2 ng/ml), hIL-4 (2 ng/ml), apelin (0.2 μg/ml) or adiponectin (1 μg/ml); and collected after 24 hrs.
as §1

[2] = C57BL mice, insulin 1 μM topical daily for six days, untreated about 60%
[3] = hIL-6 0.2 ng/ml, leptin 4 μg/ml, apelin 0.02 μg/ml

insulin [reference compound]
migrating keratinocytes observed across the wound gap, percent of wounds (K14 staining) [1, 2]: about 90%
recruited adipocytes present, percent of wounds (H&E staining) [1, 2]: ~80%
wound area compared with the buffer control (morphological analysis) [1]: substantially smaller

O=C(Nc1ccccc1)c1cc([N+](=O)[O-])ccc1Cl [GW9662, 2-chloro-5-nitrobenzanilide, reference compound]
epidermal migration vs PBS control (K14 staining) [1]: promoted; also recorded: migrating toward covering the wound gap
wound contraction vs PBS control [1]: promoted wound contraction
dermal contraction (both dermal wound sides in a single field, H&E) [1]: positive dermal contraction
wound area compared with the buffer control (morphological analysis) [1]: substantially smaller
keratinocytes migration in vitro vs untreated control (primary keratinocytes; scratch with 200 μm tip, Day 2 (48 hours), GW9662 2 μM, troglitazone 100 μM): promoted keratinocytes migration

adipsin
epidermal closure, percent of wounds positive (K14) ([1]; adipsin 1 μM topical daily, buffer control about 15%): about 30%
keratinocytes migration, percent of wounds positive (K14) ([1]; adipsin 1 μM topical daily, buffer control about 30%): about 65%
epidermal migration vs PBS control (K14 staining) [1]: migrating toward covering the wound gap
wound contraction vs PBS control [1]: substantially promoted wound contraction
dermal contraction (both dermal wound sides in a single field, H&E) [1]: positive dermal contraction
wound area compared with the buffer control (morphological analysis) [1]: substantially smaller
keratinocytes migration in vitro (summary statement) (primary keratinocytes; no concentration given): substantially accelerated keratinocytes migration in vitro

IL-6: adipokine hIL-6
keratinocyte migration in scratch assay vs control and insulin (primary keratinocytes; [3]): not as significantly

IL-8: adipokine hIL-8
fibroblasts migration to close the wound gap vs non-treated and insulin (primary skin fibroblasts): smaller yet significant effect

IL-1: adipokine hIL-1β
fibroblasts migration to close the wound gap vs non-treated and insulin (primary skin fibroblasts): promoted fibroblasts migration to completely close the wound gap

apelin
keratinocyte migration in scratch assay vs control and insulin (primary keratinocytes; hIL-4 2 ng/ml, apelin 0.2 μg/ml): keratinocyte migration was highly significant
keratinocyte migration in scratch assay vs control and insulin (primary keratinocytes; [3]): not as significantly
fibroblasts migration to close the wound gap vs non-treated and insulin (primary skin fibroblasts): promoted fibroblasts migration to completely close the wound gap

leptin
keratinocyte migration in scratch assay vs control and insulin (primary keratinocytes; [3]): not as significantly
